Data from ChEMBL document CHEMBL1201862, “PubChem BioAssay data set” (2004).
The source made the active and inactive calls.

Experiments:
[1] = target: Peroxisome proliferator-activated receptor gamma/Nuclear receptor coactivator 1 (Homo sapiens, UniProt P37231); assay: (§1) TR-FRET dose response biochemical High Throughput Screening assay for agonists of the steroid receptor coactivator 1 (SRC-1) recruitment by the peroxisome proliferator-activated receptor gamma (PPAR gamma): non-selective agonists. [Related pubchem assays (depositor defined):AID1300, AID1808, AID504735, AID631]; assay type: protein assay
[2] = target: Peroxisome proliferator-activated receptor gamma/Nuclear receptor coactivator 3 (Homo sapiens, UniProt P37231); assay: as §1, with “3 (SRC-3)” for “1 (SRC-1)”, “assays: 1301 (Confirmation screen.), 1048 (Primary screen.)]” for “assays (depositor defined):AID1300, AID1808, AID504735, AID631]”; assay type: functional
[3] = target: Peroxisome proliferator-activated receptor gamma/Nuclear receptor coactivator 2 (Homo sapiens, UniProt P37231); assay: TR-FRET dose response biochemical High Throughput Screening assay for agonists of the steroid receptor coactivator 2 (SRC-2) recruitment by the peroxisome proliferator-activated receptor gamma (PPAR gamma): non-selective agonists. [Related pubchem assays: 1297, 1032 ]; assay type: functional
Chain of Peroxisome proliferator-activated receptor gamma/Nuclear receptor coactivator 2 (P37231 whole entry): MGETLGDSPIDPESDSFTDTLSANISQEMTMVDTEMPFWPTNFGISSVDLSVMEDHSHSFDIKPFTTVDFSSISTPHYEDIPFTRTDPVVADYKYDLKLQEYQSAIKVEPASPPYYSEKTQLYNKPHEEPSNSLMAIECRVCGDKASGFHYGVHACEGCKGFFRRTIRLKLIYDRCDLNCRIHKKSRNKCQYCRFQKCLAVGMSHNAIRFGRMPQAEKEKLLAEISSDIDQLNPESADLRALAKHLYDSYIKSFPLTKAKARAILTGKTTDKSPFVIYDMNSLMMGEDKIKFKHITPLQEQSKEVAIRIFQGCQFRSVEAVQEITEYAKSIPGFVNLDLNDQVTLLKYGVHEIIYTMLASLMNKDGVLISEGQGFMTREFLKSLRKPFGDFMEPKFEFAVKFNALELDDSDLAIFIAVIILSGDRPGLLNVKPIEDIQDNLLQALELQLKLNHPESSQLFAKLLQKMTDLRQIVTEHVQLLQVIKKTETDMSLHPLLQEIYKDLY
Chain of Peroxisome proliferator-activated receptor gamma/Nuclear receptor coactivator 2 (Q15596 whole entry, further chain): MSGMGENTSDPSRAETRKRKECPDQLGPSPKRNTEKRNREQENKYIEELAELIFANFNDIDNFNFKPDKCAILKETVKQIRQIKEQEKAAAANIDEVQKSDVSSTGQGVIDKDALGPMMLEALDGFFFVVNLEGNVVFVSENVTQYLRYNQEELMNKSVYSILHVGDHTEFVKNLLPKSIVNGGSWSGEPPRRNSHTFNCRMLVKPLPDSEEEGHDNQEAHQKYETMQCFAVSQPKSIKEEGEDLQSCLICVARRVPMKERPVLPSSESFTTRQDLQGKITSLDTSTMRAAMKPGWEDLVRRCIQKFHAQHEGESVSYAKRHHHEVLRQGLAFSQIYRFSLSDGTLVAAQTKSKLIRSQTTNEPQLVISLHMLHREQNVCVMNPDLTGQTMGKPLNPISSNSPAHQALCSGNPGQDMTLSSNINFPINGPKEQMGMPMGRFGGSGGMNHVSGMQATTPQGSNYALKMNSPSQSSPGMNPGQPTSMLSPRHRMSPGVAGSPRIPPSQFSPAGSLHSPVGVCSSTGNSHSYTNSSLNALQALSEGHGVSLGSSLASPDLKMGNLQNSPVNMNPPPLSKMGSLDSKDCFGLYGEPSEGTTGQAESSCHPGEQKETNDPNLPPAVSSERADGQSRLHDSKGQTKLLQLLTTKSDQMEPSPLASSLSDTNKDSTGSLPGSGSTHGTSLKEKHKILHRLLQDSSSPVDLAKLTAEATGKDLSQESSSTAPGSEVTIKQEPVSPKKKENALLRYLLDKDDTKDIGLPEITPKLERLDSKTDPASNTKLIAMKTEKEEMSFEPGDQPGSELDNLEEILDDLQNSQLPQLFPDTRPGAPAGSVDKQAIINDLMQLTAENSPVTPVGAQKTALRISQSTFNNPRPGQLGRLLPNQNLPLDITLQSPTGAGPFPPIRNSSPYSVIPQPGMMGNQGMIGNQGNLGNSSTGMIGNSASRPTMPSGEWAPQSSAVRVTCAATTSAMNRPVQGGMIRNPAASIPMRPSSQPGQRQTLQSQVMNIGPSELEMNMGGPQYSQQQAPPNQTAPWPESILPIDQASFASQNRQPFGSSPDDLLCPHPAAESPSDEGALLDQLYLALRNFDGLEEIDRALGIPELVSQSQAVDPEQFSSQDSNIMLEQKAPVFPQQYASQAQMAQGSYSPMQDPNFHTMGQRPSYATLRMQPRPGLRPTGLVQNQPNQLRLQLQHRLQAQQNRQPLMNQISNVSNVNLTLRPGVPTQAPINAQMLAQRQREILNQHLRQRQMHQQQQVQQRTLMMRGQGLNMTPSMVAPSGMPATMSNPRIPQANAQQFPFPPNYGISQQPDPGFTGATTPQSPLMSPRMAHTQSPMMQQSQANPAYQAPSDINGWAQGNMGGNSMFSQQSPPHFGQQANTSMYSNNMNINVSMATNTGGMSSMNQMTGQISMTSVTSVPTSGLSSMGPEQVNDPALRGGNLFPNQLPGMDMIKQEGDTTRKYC

[4] = target: Voltage-dependent T-type calcium channel subunit alpha-1H (Homo sapiens, UniProt O95180); assay type: functional;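 also: channel activity triggered by adding a high calcium stimulation buffer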
Chain of Voltage-dependent T-type calcium channel subunit alpha-1H (O95180 whole entry): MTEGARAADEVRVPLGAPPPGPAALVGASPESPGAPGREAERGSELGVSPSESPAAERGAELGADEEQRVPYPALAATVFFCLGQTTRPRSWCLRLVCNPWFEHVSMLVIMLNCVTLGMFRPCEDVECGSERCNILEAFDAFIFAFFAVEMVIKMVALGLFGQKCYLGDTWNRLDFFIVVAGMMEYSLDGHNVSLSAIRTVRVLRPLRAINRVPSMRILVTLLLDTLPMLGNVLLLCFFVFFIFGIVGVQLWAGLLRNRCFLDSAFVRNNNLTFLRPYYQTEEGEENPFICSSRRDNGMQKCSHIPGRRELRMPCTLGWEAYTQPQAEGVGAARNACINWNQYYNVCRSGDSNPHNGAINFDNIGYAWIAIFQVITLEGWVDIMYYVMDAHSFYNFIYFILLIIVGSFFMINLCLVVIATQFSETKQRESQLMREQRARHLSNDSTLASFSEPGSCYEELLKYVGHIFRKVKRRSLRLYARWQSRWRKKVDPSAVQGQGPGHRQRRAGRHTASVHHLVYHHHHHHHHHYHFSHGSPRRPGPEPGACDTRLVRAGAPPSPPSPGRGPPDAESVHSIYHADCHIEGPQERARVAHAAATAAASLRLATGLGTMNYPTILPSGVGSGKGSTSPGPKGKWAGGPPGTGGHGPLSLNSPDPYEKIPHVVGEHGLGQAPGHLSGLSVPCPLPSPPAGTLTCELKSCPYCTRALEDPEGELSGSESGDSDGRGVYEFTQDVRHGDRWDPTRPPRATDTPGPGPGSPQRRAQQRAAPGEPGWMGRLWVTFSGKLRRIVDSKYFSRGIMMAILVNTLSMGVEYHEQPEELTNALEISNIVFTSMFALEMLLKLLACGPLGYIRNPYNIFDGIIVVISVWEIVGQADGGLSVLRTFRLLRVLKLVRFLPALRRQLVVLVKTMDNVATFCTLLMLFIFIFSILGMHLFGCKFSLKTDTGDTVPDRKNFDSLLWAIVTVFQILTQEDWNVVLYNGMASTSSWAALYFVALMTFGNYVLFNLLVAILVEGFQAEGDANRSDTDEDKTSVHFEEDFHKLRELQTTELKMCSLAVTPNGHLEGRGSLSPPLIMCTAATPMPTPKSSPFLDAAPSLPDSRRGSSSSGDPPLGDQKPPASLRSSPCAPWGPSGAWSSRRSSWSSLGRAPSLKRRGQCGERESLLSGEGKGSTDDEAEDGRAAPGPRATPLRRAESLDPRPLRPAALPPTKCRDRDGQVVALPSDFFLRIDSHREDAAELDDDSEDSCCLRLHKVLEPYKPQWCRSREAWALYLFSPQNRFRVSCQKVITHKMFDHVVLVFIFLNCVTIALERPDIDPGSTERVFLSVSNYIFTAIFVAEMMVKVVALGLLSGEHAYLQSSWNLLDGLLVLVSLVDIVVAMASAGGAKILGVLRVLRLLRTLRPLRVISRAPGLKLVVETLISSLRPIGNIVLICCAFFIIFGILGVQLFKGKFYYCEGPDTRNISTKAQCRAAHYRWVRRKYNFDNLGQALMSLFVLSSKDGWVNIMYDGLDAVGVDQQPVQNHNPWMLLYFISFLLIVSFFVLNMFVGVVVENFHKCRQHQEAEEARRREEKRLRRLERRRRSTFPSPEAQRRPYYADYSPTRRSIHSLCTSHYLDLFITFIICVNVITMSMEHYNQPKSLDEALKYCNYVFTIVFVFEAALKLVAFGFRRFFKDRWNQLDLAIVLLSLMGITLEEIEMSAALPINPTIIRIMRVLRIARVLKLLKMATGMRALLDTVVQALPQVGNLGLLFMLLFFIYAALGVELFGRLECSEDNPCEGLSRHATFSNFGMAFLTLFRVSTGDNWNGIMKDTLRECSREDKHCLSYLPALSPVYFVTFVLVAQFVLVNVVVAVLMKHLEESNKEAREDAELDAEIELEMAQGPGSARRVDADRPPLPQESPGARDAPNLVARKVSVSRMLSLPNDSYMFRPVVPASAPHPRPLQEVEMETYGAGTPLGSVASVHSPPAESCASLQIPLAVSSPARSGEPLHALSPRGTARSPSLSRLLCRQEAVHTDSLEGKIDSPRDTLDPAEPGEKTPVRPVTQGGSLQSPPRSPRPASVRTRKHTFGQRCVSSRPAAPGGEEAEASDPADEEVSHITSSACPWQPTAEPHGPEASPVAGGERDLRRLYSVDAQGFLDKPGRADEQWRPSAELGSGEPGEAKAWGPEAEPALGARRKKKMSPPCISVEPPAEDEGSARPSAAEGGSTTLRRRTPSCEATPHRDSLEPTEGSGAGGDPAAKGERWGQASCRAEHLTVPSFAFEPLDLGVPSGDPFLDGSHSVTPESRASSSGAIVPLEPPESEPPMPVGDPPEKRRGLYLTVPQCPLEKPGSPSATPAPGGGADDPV

cells = assay type: functional
[5] = target: DNA dC->dU-editing enzyme APOBEC-3A (Homo sapiens, UniProt P31941); assay: Dose Response confirmation of small molecule APOBEC3A DNA Deaminase Inhibitors via a fluorescence-based single-stranded DNA deaminase assay. [Related pubchem assays (depositor defined):AID493011, AID493024]; assay type: functional
Chain of DNA dC->dU-editing enzyme APOBEC-3A (P31941 whole entry): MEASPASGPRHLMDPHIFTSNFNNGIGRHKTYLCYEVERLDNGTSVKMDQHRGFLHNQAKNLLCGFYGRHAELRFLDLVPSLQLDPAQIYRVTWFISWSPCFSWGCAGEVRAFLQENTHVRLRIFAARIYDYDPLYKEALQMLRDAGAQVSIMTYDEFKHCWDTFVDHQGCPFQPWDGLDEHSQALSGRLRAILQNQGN

[6] = target: DNA dC->dU-editing enzyme APOBEC-3G (Homo sapiens, UniProt Q9HC16); assay type: functional;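 also: Dose-response counterscreen measuring inhibition of APOBEC3G DNA deaminase activity, run while confirming APOBEC3A inhibitors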
Chain of DNA dC->dU-editing enzyme APOBEC-3G (Q9HC16 whole entry): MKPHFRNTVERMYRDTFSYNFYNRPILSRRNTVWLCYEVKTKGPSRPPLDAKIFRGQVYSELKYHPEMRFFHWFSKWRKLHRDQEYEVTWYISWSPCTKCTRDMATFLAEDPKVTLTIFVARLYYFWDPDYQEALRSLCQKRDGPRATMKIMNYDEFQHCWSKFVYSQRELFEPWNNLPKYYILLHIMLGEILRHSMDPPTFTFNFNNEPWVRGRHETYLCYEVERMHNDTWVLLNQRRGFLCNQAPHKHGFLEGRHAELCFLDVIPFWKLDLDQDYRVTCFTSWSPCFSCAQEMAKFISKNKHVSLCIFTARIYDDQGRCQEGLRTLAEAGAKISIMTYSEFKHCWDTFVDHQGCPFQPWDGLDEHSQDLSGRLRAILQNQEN

[7] = target: T1, Endoribonuclease toxin MazF (Escherichia coli K-12, UniProt P0AE70); assay: activation of MazEF endoribonuclease cleavage – biochemical, fluorescence, single-stranded RNA substrate, uHTS hits, dose response (AID 588481); assay type: functional
T1 sequence (P0AE70 whole entry): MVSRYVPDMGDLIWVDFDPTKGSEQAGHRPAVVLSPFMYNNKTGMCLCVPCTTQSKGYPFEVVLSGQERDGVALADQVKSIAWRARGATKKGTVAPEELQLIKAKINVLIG

[8] = target: T1, Endoribonuclease toxin MazF; assay: substrate-only fluorescence increase artefacts – biochemical, single-stranded RNase substrate, counter-screen for MazEF activator project, dose response (AID 588502); assay type: functional
[9] = blockers of HIV-1 envelope-mediated cell-cell fusion – cherry-pick, dose response (AID 652057); assay type: functional, cell-based
[10] = blockers of HIV-1 ZM109 envelope-driven cell-cell fusion – HeLa effector, CEM target cells, luciferase, cherry-pick, dose response (AID 652058); assay type: functional, cell-based;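 also: luciferase signal from HIV-1 Env mediated cell-cell fusion of effector and target cells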
[11] = off-target signal loss in HeLa-CEM21 co-culture – HeLa F-luc CTL cells, cherry-picked, counter-screen for HIV-1 Env fusion inhibitor project, dose response (AID 652040); assay type: functional, cell-based;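 also: potency for signal decrease marking cytotoxic or nonspecific inhibition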
[12] = HIV-1 AD8 envelope cell-cell fusion blockers – cherry-pick, dose response (AID 652062); assay type: functional, cell-based;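 also: luciferase signal from cell-cell fusion driven by HIV-1 clade B AD8 Env; potency is for inhibitors of fusion seen as a drop in luminescence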
[13] = target: T2, Calpain-2 catalytic subunit (Sus scrofa, UniProt P43367); assay: m-calpain protease blockers, concentration series – biochemical, fluorogenic peptide substrate, dose response (AID 1420); assay type: functional
T2 sequence (P43367 whole entry): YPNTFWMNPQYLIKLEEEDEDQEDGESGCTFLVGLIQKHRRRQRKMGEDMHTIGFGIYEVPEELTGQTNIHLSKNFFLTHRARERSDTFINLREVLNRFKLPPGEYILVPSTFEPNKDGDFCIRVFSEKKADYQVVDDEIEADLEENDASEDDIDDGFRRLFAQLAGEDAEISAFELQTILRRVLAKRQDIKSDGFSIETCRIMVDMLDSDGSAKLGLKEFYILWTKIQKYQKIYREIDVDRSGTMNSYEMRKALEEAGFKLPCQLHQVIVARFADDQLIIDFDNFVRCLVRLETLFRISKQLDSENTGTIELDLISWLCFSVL

Paired box protein Pax-8 = Paired box protein Pax-8 (Homo sapiens, UniProt Q06710); assay: PAX8 transcriptional activity inhibition in RMG-I – RMG-I cells, luciferase, cherry-pick, dose response (AID 687027); assay type: functional, cell-based;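 also: luciferase reporter driven by Pax8 target thyroperoxidase promoter measured by SteadyGlo luminescence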
[14] = test system: Streptococcus sp. 'group A'; assay: Streptococcus pyogenes SK(-)GAS viability under kanamycin – luminescence, BacTiterGlo, confirmation, counter-screen for streptokinase expression inhibitor project, dose response (AID 1900); assay type: functional, organism-based
Streptokinase A = target: T3, Streptokinase A (Streptococcus pyogenes serotype M1, UniProt P10520); assay: viability-normalized secreted streptokinase activity reduction – plasminogen activation absorbance, OD405, dose response (AID 1914); assay type: functional, Streptococcus pyogenes M1 GAS;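 also: secreted streptokinase activity via plasminogen activation per viability signal from cell pellet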
T3 sequence (P10520 whole entry): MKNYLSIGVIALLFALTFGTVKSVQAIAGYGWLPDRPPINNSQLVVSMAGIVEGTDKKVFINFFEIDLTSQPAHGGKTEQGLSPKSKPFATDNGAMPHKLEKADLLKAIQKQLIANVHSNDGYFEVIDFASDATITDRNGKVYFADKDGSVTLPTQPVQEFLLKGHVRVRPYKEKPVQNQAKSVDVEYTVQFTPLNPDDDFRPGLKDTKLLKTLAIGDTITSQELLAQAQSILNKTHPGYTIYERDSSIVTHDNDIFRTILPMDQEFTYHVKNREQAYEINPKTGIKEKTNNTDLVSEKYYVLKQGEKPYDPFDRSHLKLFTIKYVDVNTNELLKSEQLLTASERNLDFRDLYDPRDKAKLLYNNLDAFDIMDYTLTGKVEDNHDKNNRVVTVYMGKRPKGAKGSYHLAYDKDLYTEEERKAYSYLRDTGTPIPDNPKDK

Streptococcus = assay: GAS UMAA2166 growth inhibition – luminescence, BacTiterGlo, counter-screen for streptokinase expression inhibitor project, dose response (AID 1915); assay type: functional, organism-based;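 also: potency for reduction of bacterial viability or growth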
Vero = assay: cells; assay type: functional; settings: Chlorocebus sabaeus
[15] = target: T4, Replicative DNA helicase DnaB (Mycobacterium tuberculosis, UniProt P9WMR3); assay: DnaB intein splicing inhibitors, dose response, biochemical, cell-free fluorescence (AID 449749); assay type: functional
T4 sequence (P9WMR3 whole entry): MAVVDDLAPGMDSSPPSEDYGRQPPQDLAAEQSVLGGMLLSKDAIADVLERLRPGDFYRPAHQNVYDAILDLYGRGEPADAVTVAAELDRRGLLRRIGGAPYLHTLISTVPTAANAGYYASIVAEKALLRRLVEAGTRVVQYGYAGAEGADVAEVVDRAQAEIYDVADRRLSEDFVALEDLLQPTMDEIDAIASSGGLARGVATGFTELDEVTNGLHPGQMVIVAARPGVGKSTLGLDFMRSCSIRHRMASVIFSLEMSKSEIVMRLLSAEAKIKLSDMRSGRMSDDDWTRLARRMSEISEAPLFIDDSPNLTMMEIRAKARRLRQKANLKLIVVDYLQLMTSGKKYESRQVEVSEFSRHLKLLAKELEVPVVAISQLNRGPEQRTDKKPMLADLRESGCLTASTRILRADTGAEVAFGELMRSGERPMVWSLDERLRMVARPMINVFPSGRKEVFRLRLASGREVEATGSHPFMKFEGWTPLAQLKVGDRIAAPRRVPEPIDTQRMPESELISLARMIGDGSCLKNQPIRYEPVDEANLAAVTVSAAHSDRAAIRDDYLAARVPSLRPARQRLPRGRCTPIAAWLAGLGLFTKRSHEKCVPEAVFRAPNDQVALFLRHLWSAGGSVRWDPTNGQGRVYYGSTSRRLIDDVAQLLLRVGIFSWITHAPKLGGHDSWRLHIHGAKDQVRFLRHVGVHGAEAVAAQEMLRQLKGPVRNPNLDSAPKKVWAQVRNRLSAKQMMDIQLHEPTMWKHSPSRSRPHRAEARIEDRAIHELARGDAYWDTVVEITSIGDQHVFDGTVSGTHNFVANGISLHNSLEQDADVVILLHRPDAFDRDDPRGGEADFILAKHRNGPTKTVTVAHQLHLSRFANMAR

Protein RecA = target: T5, Protein RecA (Mycobacterium tuberculosis, UniProt P9WHJ3); assay: Fluorescence Cell-Free Homogeneous Dose Retest to Identify Inhibitors of RecA-Intein Splicing Activity. [Related pubchem assays (depositor defined):AID2097, AID2223, AID489010, AID492950]; assay type: functional
T5 sequence (P9WHJ3 whole entry): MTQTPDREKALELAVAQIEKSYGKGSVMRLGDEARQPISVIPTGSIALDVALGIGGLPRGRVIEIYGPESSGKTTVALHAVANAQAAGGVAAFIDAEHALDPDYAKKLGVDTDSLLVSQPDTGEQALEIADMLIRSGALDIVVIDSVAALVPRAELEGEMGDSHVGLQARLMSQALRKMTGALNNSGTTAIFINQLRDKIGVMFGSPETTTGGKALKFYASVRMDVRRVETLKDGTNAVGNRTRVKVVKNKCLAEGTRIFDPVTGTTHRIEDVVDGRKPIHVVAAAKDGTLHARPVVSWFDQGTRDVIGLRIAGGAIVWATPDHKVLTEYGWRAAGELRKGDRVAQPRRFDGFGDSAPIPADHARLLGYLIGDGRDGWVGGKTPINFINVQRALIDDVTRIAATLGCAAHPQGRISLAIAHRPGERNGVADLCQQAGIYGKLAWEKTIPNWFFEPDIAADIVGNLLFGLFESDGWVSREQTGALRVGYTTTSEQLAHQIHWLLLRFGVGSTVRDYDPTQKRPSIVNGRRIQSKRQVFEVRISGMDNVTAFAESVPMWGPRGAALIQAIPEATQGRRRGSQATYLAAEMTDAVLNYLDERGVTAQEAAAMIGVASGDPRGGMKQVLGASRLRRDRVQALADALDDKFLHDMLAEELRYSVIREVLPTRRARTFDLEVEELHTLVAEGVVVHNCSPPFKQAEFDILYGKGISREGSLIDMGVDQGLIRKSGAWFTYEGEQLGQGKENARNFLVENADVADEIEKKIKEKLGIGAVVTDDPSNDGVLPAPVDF

N#Cc1cc2c(nc1SCc1ccccc1)CCCCC2
EC50 [1]: > 8.82 µM (inactive) | EC50 [2]: > 79.4 µM (not active) | EC50 [3]: 12.7 µM (not active)

CC(/C=C(\O)c1ccncc1)=N\c1ccccc1O
EC50 [4]: 3.26 µM (active) | IC50 (cells): 3.1 µM (active)

COc1ccc2[nH]c(O)c(N=O)c2c1
IC50 [5]: 2.64 µM (active) | IC50 [6]: 4.41 µM (active)

O=C(CCC1N=C2c3ccccc3N=C(SCc3ccccc3Cl)N2C1=O)NCc1ccco1 (stereo unspecified)
EC50 [4]: 14 µM (active)

CN(C)c1ccc(C=C2C=Cc3ccccc32)cc1
EC50 [7]: > 99 µM (inactive) | EC50 [8]: 20.7 µM (inactive)

CC(=O)c1ccc(S(=O)(=O)N2Cc3ccccc3CC2C(=O)O)cc1 (stereo unspecified)
IC50 [5]: 14 µM (active) | IC50 [6]: 43.7 µM (active)

Cc1ccc(C)c(CS(=O)(=O)c2cn(CC(=O)N3CCC(C)CC3)c3ccccc23)c1
AC50 [9]: 2.82 µM (active) | AC50 [10]: 3.03 µM (active) | AC50 [11]: 3.13 µM (active) | AC50 [12]: 2.04 µM (active)

CSC1=NP(=S)(SC)N(C)c2nc3n(c21)CCC3 (stereo unspecified)
EC50 [1]: > 79.4 µM (inactive) | EC50 [2]: > 79.4 µM (not active) | EC50 [3]: > 79.4 µM (not active)

CCn1c(=O)cc(SCC(=O)Nc2ccc(OC)c(OC)c2)c2ccccc21
EC50 [1]: > 79.4 µM (inactive) | EC50 [2]: > 79.4 µM (not active) | EC50 [3]: 53.8 µM (not active)

COc1cc(/C=N/NS(=O)(=O)c2ccc(C)cc2)ccc1OCc1ccc(C(=O)O)cc1
IC50 [13]: > 50 µM (not active) | AC50 [9]: 2.5 µM (active) | AC50 [10]: 16.1 µM (active) | AC50 (Paired box protein Pax-8): 23.9 µM (active) | AC50 [11]: 3.18 µM (active) | AC50 [12]: 8.31 µM (active)

COc1cccc(OCC(O)CN2CCC(Cc3ccccc3)CC2)c1 (stereo unspecified)
EC50 [4]: 4.62 µM (active)

O=C(Nc1ccc(N2CCN(C(=O)c3ccccc3)CC2)c(Cl)c1)c1cccnc1
EC50 [14]: 12.4 µM (active) | EC50 (Streptokinase A): > 150 µM (not active) | EC50 (Streptococcus): 14.7 µM (active) | AC50 [11]: 20.5 µM (active) | AC50 [12]: 12.6 µM (active)

O=C(CN1CCc2ccccc2C1)Nc1ccccc1N1CCCCCC1
EC50 [14]: 6.54 µM (active) | EC50 (Streptokinase A): 13 µM (active) | EC50 (Streptococcus): 13.3 µM (active) | EC50 [4]: 8.39 µM (active)

O=C(CSc1nnnn1-c1ccccc1)N1CCc2ccccc21
IC50 [5]: 6.17 µM (active) | IC50 [6]: 4.32 µM (active)

CC(C)(C)c1ccc(OCCC(=O)Nc2cccc(S(=O)(=O)N3CCOCC3)c2)cc1
AC50 [9]: 22.2 µM (active) | AC50 [11]: 48.2 µM (active) | AC50 [12]: 53.1 µM (active)

Cc1ccc(N2C(=O)N3[C@H](c4cccc(C)c4)[C@@H]4C(=O)N(Cc5ccccc5)C(=O)[C@@H]4[C@]3(C)C2=O)cc1
AC50 [9]: 3.36 µM (active) | AC50 [10]: 1.2 µM (active) | AC50 [11]: 3.88 µM (active) | AC50 [12]: 2.33 µM (active)

Cc1ccc2cc(C#N)c(NCCNC(=O)C3CC3)nc2c1C
AC50 [9]: 4.5 µM (active) | AC50 [10]: 4.47 µM (active) | AC50 [11]: 2.96 µM (active) | AC50 [12]: 6.25 µM (active)

COc1ccc(C(=O)CC(SCC(NC(C)=O)C(=O)O)c2ccc(Cl)cc2)cc1OC (stereo unspecified)
CC50 (Vero): 22.4 µM (active)

CN1CCN(c2ccc(Cl)cc2NC(=O)CC2OC(=O)c3ccccc32)CC1 (stereo unspecified)
IC50 [5]: 3.24 µM (active) | IC50 [6]: 2.9 µM (active)

COc1cc2cc(c1Cl)N(C)C(=O)CC(OC(=O)C(C)N(C)C(C)=O)C1(C)OC1C(C)C1CC(O)(NC(=O)O1)C(OC)C=CC=C(C)C2 (stereo unspecified)
CC50 (Vero): < 0.05 µM (active)

O=C(Nc1nnc(-c2ccc3c(c2)CCCC3)o1)C1COc2ccccc2O1 (stereo unspecified)
EC50 [4]: 1.37 µM (active)

COc1cccc(NC(=O)CSc2c3c(nc4ccccc24)CCCC3)c1
EC50 [1]: > 79.4 µM (inactive) | EC50 [2]: > 79.4 µM (not active) | EC50 [3]: 66.1 µM (not active) | AC50 [15]: 35.9 µM (active) | EC50 (Protein RecA): 3.36 µM (active)
